US20110293559A1, “CATABOLIC AGENTS” (priority 2008, published 2011)
Read-outs that look alike come from different tables or passages of the source.

Tests used:
[1] = test system: immature articular cartilage explants; test: Disc-core cartilage explant integration culture with histology; assay type: cell-based
Source text: (§1) Six millimetre diameter cartilage explants from immature articular cartilage containing 3 mm diameter inner cores, both created using punch biopsy tools (Steifel), were placed in Dulbecco's modified Eagles medium (DMEM) culture medium containing various concentrations of interleukin-1β or tumour necrosis factor α (TNFα; Peprotech), or, the culture medium without cytokine as a control. The medium was removed after the nominated time and washed once with DMEM then replaced with DMEM medium containing 50 μg/ml ascorbate, 10 mM HEPES, gentamycin and supplemented with 1× insulin-transferrin-selenium (ITS; Sigma). For qPCR studies the explants were first allowed to equilibriate in serum containing medium for 3 days, then washed 3 times in serum-free DMEM before the treatment as described above. For long term culture following 2 hour cytokine treatment explants were treated immediately following their excision from the joint, then cultured for 4 weeks in serum-free DMEM containing ITS, ascorbate, HEPES and gentamycin. The culture medium was changes 3 times a week.
Four week core and disc cultures were fixed with neutral-buffered formyl-saline and left overnight at 4 C. The explants were then processed for wax embedding. Ten micron sections were cut using a microtome, and sections dewaxed and rehydrated in a descending series of alcohols. Sections were stained with haemotoxylin (1 minute), washed in water and then stained with Safranin-O (2 minutes) washed briefly in water and then dehydrated, dipped in xylene and then mounted in DPX liquid under coverslips.

[2] = test system: immature articular cartilage explants; test: Mechanical push-out test of disc/ring interface; assay type: cell-based; conditions: FIG. 2, 3 weeks in culture, n=4
Source text: as §1, with “For long term culture following 2 hour cytokine treatment explants were treated immediately following their excision from the joint, then cultured for 4 weeks in serum-free DMEM containing ITS, ascorbate, HEPES and gentamycin. The culture medium was changes 3 times a week.” left out
Adhesive properties of the disc/ring interface after 3-weeks in culture were assessed using a push-out test (n=4). Thickness of the sample was measured using calipers. […] A computer activated micro-stepper controlled the displacement of the push-out rod (0.05 mm/min), whilst a load cell (100N) coupled to the rod measured the push-out force. The adhesive strength was calculated from the maximum force measured at failure per unit of interfacial area.

MMP13 gene expression = test: qPCR MMP13 gene expression in cartilage explants; assay type: cell-based
Method: The medium was removed after the nominated time and washed once with DMEM then replaced with DMEM medium containing 50 μg/ml ascorbate, 10 mM HEPES, gentamycin and supplemented with 1× insulin-transferrin-selenium (ITS; Sigma). For qPCR studies the explants were first allowed to equilibriate in serum containing medium for 3 days, then washed 3 times in serum-free DMEM before the treatment as described above. For long term culture following 2 hour cytokine treatment explants were treated immediately following their excision from the joint, then cultured for 4 weeks in serum-free DMEM containing ITS, ascorbate, HEPES and gentamycin. The culture medium was changes 3 times a week.
Quantitative polymerase chain reaction (qPCR) using the fluorescent dye SYBR Green (Eurogentec, Belgium) was used to determine the absolute expression levels of ADAMTS4 and MMP-13 between explants. Real-time PCR reactions were carried out in 25 μl volumes in a 96-well plate (Applied Biosystems™) containing 1× buffer (10×), 3.5 mM MgCl2, 200 μM dNTPs, 0.3 μM of sense and antisense primers, 0.025 U enzyme and 1:66000 SYBR GreenI®. All reactions were made using gPCR™ Core Kit for SYBR Green I® (Eurogentec). At the end of each reaction, the cycle threshold (CT) was manually setup at the level that reflected the best kinetic PCR parameters, and melting curves were acquired and analysed. Absolute values for the gene of interest were calculated from standard curves generated using serially diluted plasmid cloned and sequence verified template (ng DNA) and were normalized to the housekeeping gene 18S rRNA.

cartilage = conditions: in vitro, cited from earlier work

Molecule | integration between disc and core cartilages ([1]; 10 ng/ml for 24 hours, unsupplemented culture medium, cultured for a further 2 weeks (FIG. 1A)) | chondrocyte migration in the interfacial matrix ([1]; 25 ng/ml IL1β for 2 hours, then 4 weeks culture, high power histology (FIG. 9)) | integration, assessed qualitatively through retention of matrix integrity (safranin-O histology) ([1]; 25 ng/ml IL1β for 2 hours, then 4 weeks serum-free culture with ITS (FIG. 8)) | force to push out the explant from the disc versus untreated explants [2] | increase in MMP13 gene expression (MMP13 gene expression; 25 ng/ml IL1β, 2 hours, P>0.116, n=3 (FIG. 3)) [fold] | MMP13 gene expression, effect of increasing concentrations (MMP13 gene expression; 12.5-100 ng/ml for 2 hours) | cartilage integration (cartilage; 1 pg/ml or 100 pg/ml, 14 days) | cartilage integration (cartilage; 10 pg/ml, incubation of the cartilage for 14 days) | increase in MMP13 gene expression (MMP13 gene expression; 100 μM retinoic acid, 2 hour incubation, P<0.03, n=3 (FIG. 6))
IL1β: catabolic cytokine, member of the interleukin-1 superfamily | enhances integration | presence of migrating chondrocytes within the interfacial matrix | best achieved | almost six times more force | 1.64 | increase in MMP13 gene expression | not consistent | enhanced cartilage integration | –
CC1=C(/C=C/C(C)=C/C=C/C(C)=C/C(=O)O)C(C)(C)CCC1 [Retinoic acid, reference compound] | – | – | – | – | – | – | – | – | approximately 3 fold
